In ChEMBL document CHEMBL4507262, “Data for DCP probe A-1596586” (2021):

Legend:
[1] = target: Ribosomal protein S6 kinase alpha-6 (Homo sapiens) (UniProt Q9UK32); conditions: Compound concentration 1000.0 nM
[2] = tested on: Phosphatidylinositol 4,5-bisphosphate 3-kinase catalytic subunit alpha isoform (Homo sapiens), P42336 [Q546K]; conditions: Compound concentration 1000.0 nM
[3] = target: Phosphatidylinositol 4,5-bisphosphate 3-kinase catalytic subunit gamma isoform (Homo sapiens) (UniProt P48736); conditions: Compound concentration 1000.0 nM
[4] = tested on: Tyrosine-protein kinase ABL1 (Homo sapiens), P00519 [H396P]; conditions: Compound concentration 1000.0 nM
[5] = target: Serine/threonine-protein kinase Nek4 (Homo sapiens) (UniProt P51957); conditions: Compound concentration 1000.0 nM
[6] = tested on: Proto-oncogene tyrosine-protein kinase receptor Ret (Homo sapiens), P07949 [M918T]; conditions: Compound concentration 1000.0 nM
[7] = target: Proto-oncogene tyrosine-protein kinase receptor Ret (Homo sapiens) (UniProt P07949); conditions: Compound concentration 1000.0 nM
[8] = target: Receptor tyrosine-protein kinase erbB-3 (Homo sapiens) (UniProt P21860); conditions: Compound concentration 1000.0 nM
[9] = target: Leucine-rich repeat serine/threonine-protein kinase 2 (Homo sapiens) (UniProt Q5S007); conditions: Compound concentration 1000.0 nM
[10] = target: 5-hydroxytryptamine receptor 1A (Homo sapiens) (UniProt P08908); test: 5-HT1A (h) Eurofins-Cerep binding assay; set-up: ligand concentration 0.5 nM; conditions: filed as agonist, Compound concentration 10.0 uM
Chain of 5-hydroxytryptamine receptor 1A (Homo sapiens) (P08908 whole entry): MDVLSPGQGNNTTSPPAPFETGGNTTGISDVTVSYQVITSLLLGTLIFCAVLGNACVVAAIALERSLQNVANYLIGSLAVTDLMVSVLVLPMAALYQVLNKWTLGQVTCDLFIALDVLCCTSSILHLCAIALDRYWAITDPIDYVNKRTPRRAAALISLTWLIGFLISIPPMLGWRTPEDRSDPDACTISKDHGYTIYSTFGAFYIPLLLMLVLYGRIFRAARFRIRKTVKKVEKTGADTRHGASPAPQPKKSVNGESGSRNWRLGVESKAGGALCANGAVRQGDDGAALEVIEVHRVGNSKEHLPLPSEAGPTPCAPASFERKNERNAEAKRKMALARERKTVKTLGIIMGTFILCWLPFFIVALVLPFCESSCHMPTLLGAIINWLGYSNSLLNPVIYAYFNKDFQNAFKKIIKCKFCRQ

[11] = target: AP2-associated protein kinase 1 (Homo sapiens) (UniProt Q2M2I8); conditions: Compound concentration 1000.0 nM
[12] = target: Ephrin type-A receptor 2 (Homo sapiens) (UniProt P29317); conditions: Compound concentration 1000.0 nM
Chain of Ephrin type-A receptor 2 (Homo sapiens) (P29317 whole entry): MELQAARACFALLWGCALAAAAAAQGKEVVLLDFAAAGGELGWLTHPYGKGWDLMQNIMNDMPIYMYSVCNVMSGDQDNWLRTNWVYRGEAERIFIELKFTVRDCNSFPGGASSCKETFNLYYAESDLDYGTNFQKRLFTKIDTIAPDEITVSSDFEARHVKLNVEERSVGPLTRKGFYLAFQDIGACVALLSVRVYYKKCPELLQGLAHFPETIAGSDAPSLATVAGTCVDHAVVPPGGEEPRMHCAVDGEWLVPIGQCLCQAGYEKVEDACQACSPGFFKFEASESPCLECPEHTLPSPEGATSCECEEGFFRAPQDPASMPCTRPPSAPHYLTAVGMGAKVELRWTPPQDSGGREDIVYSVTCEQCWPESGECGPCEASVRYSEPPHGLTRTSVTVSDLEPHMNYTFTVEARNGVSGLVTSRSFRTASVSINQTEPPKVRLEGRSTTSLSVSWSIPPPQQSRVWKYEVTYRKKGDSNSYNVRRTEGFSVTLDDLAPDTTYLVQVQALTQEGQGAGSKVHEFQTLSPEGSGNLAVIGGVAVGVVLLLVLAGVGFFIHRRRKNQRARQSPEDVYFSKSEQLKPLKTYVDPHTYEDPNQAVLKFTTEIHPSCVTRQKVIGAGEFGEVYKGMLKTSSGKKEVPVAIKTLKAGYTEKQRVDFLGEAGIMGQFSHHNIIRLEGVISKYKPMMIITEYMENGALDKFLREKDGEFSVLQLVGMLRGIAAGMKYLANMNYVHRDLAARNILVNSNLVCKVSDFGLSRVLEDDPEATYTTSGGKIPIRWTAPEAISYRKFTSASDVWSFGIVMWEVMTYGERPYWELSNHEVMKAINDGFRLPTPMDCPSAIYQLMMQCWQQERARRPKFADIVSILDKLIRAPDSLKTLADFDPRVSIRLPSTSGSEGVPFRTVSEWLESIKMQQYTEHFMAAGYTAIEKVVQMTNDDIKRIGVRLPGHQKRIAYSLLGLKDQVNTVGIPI

[13] = target: Tyrosine-protein kinase Lyn (Homo sapiens) (UniProt P07948); conditions: Compound concentration 1000.0 nM
Chain of Tyrosine-protein kinase Lyn (Homo sapiens) (P07948 2-512 limits assumed): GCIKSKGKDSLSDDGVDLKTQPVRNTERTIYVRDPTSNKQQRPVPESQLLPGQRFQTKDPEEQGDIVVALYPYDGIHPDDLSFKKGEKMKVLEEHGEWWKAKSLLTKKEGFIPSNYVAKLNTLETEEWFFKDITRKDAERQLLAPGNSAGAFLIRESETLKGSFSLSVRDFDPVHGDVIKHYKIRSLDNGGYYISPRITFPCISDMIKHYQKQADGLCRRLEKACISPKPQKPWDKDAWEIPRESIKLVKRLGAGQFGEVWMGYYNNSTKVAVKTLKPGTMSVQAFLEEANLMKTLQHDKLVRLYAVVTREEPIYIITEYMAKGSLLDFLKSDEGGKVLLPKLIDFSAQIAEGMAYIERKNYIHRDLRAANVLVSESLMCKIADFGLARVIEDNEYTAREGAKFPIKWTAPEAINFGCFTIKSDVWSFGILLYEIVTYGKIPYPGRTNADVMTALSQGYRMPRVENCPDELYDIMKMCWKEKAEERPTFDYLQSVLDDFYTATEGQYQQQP

[14] = target: BDNF/NT-3 growth factors receptor (Homo sapiens) (UniProt Q16620); conditions: Compound concentration 1000.0 nM
Chain of BDNF/NT-3 growth factors receptor (Homo sapiens) (Q16620 32-822 limits assumed): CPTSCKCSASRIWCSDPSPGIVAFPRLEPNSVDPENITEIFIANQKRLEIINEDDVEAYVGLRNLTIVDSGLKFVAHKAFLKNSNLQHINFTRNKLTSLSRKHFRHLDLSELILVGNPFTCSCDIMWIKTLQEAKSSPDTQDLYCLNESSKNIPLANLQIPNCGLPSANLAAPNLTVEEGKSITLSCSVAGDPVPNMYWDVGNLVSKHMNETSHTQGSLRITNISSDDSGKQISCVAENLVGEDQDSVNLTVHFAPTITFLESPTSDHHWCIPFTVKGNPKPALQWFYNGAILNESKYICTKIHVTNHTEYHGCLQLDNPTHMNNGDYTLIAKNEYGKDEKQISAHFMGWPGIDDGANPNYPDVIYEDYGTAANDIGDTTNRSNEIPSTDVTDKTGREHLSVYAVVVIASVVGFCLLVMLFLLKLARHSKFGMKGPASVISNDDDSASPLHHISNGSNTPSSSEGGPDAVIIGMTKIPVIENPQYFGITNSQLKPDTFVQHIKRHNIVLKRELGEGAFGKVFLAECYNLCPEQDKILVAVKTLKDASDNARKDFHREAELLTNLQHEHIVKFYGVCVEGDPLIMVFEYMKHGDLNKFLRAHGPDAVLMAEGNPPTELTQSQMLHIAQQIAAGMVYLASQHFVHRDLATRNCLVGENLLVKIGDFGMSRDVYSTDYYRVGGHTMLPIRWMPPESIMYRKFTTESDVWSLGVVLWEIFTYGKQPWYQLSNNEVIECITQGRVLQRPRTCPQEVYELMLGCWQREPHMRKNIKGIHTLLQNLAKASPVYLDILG

[15] = target: 5-hydroxytryptamine receptor 2A (Homo sapiens) (UniProt P28223); conditions: Compound concentration 10.0 uM
[16] = target: Misshapen-like kinase 1 (Homo sapiens) (UniProt Q8N4C8); conditions: Compound concentration 1000.0 nM
[17] = tested on: Tyrosine-protein kinase ABL1 (Homo sapiens), P00519 [M351T]; conditions: Compound concentration 1000.0 nM
[18] = target: Serine/threonine-protein kinase 10 (Homo sapiens) (UniProt O94804); conditions: Compound concentration 1000.0 nM
[19] = target: Non-receptor tyrosine-protein kinase TNK1 (Homo sapiens) (UniProt Q13470); conditions: Compound concentration 1000.0 nM
[20] = target: Cyclin-dependent kinase 17 (Homo sapiens) (UniProt Q00537); conditions: Compound concentration 1000.0 nM
[21] = target: P2X receptor (Rattus norvegicus) (UniProt P51579+P49653+P51578+Q64663+P47824+P51577+P49654); test: P2X Eurofins-Cerep binding assay; format: protein assay; set-up: ligand concentration 3 nM; conditions: filed as agonist, Compound concentration 10.0 uM
[22] = target: RAC-gamma serine/threonine-protein kinase (Homo sapiens) (UniProt Q9Y243); conditions: Compound concentration 1000.0 nM
[23] = target: Peroxisome proliferator-activated receptor gamma (Homo sapiens) (UniProt P37231); test: PPARgamma (h) Eurofins-Cerep binding assay; set-up: ligand concentration 5 nM; conditions: filed as agonist, Compound concentration 10.0 uM
[24] = target: Serine/threonine-protein kinase TAO2 (Homo sapiens) (UniProt Q9UL54); conditions: Compound concentration 1000.0 nM
[25] = target: Serine/threonine-protein kinase LATS2 (Homo sapiens) (UniProt Q9NRM7); conditions: Compound concentration 1000.0 nM
Chain of Serine/threonine-protein kinase LATS2 (Homo sapiens) (Q9NRM7 whole entry): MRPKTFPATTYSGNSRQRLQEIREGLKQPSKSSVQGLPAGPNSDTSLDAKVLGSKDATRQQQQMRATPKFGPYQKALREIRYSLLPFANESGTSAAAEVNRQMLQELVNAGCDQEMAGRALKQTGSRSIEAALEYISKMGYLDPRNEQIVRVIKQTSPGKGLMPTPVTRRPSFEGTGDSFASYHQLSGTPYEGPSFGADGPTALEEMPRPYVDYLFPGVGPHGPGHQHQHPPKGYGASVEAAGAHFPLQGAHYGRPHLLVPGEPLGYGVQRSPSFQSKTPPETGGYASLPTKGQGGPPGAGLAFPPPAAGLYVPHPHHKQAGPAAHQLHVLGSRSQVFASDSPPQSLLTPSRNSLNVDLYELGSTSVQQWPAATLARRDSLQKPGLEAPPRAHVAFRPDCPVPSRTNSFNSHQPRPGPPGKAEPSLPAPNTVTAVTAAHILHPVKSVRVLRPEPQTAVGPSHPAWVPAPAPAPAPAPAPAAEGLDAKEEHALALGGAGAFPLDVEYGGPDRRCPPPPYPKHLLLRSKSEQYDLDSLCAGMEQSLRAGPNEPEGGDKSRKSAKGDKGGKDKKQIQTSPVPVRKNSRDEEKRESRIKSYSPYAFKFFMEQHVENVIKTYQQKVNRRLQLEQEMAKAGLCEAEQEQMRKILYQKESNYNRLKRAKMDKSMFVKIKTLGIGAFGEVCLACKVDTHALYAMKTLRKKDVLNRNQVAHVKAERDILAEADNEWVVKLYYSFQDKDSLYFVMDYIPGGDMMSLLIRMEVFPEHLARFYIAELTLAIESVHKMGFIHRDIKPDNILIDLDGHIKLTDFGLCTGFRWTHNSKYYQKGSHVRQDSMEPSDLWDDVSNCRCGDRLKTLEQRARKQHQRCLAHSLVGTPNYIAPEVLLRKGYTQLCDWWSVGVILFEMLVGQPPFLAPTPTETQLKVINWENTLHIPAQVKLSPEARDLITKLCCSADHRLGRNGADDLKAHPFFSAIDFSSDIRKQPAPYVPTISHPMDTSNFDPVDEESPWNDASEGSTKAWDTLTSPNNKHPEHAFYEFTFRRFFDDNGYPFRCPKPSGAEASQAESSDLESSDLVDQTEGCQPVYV

[26] = target: Dual specificity mitogen-activated protein kinase kinase 6 (Homo sapiens) (UniProt P52564); conditions: Compound concentration 1000.0 nM
Chain of Dual specificity mitogen-activated protein kinase kinase 6 (Homo sapiens) (P52564 whole entry): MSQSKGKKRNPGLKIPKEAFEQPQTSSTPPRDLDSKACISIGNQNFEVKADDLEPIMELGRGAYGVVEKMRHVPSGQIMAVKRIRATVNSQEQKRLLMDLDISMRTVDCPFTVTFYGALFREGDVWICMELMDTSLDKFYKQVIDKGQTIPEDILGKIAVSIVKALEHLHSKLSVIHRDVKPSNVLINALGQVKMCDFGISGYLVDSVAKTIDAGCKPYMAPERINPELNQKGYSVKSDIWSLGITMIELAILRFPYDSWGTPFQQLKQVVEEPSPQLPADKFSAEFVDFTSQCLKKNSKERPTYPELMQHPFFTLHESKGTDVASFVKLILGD

[27] = tested on: Mast/stem cell growth factor receptor Kit (Homo sapiens), P10721 [A829P]; conditions: Compound concentration 1000.0 nM
[28] = target: Serine/threonine-protein kinase haspin (Homo sapiens) (UniProt Q8TF76); conditions: Compound concentration 1000.0 nM
[29] = target: Serine/threonine-protein kinase Nek6 (Homo sapiens) (UniProt Q9HC98); conditions: Compound concentration 1000.0 nM
[30] = target: Mitogen-activated protein kinase kinase kinase 10 (Homo sapiens) (UniProt Q02779); conditions: Compound concentration 1000.0 nM
[31] = target: cAMP-dependent protein kinase catalytic subunit PRKX (Homo sapiens) (UniProt P51817); conditions: Compound concentration 1000.0 nM
[32] = target: D(4) dopamine receptor (Homo sapiens) (UniProt P21917); conditions: Compound concentration 10.0 uM
[33] = target: Cyclin-dependent kinase 4 (Homo sapiens) (UniProt P11802); conditions: Compound concentration 1000.0 nM
[34] = tested on: Receptor-type tyrosine-protein kinase FLT3 (Homo sapiens), P36888 [UNDEFINED MUTATION]; conditions: Compound concentration 1000.0 nM
[35] = target: Phosphatidylinositol 5-phosphate 4-kinase type-2 beta (Homo sapiens) (UniProt P78356); conditions: Compound concentration 1000.0 nM
[36] = target: Ribosomal protein S6 kinase alpha-2 (Homo sapiens) (UniProt Q15349); conditions: Compound concentration 1000.0 nM
Chain of Ribosomal protein S6 kinase alpha-2 (Homo sapiens) (Q15349 whole entry): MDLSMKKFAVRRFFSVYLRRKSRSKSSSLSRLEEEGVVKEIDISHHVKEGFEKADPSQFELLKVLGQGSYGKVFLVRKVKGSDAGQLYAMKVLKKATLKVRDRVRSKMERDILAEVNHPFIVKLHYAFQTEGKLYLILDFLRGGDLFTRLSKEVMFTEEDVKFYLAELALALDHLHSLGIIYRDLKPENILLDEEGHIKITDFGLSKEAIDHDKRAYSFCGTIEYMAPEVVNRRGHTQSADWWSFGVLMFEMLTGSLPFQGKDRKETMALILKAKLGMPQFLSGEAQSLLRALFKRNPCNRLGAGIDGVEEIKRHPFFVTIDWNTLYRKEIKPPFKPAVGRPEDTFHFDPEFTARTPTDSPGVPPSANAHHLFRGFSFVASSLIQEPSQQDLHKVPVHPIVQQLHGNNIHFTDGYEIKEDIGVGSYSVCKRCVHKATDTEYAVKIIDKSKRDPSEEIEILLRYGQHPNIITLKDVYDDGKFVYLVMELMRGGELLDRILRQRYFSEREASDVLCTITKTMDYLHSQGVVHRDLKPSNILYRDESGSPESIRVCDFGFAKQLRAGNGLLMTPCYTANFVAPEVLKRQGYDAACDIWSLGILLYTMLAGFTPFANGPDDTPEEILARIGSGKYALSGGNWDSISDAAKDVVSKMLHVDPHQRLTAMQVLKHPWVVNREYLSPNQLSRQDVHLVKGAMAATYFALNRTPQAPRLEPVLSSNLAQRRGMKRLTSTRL

[37] = target: Cyclin-dependent kinase 2 (Homo sapiens) (UniProt P24941); conditions: Compound concentration 1000.0 nM
[38] = target: SRSF protein kinase 2 (Homo sapiens) (UniProt P78362); conditions: Compound concentration 1000.0 nM
[39] = target: Ephrin type-B receptor 4 (Homo sapiens) (UniProt P54760); conditions: Compound concentration 1000.0 nM
[40] = tested on: Mast/stem cell growth factor receptor Kit (Homo sapiens), P10721 [D816H]; conditions: Compound concentration 1000.0 nM
[41] = target: Serine/threonine-protein kinase 33 (Homo sapiens) (UniProt Q9BYT3); conditions: Compound concentration 1000.0 nM
[42] = target: Substance-K receptor (Homo sapiens) (UniProt P21452); test: NK2 (h) Eurofins-Cerep binding assay; set-up: ligand concentration 0.1 nM; conditions: filed as agonist, Compound concentration 10.0 uM
[43] = target: Alpha-1A adrenergic receptor (Homo sapiens) (UniProt P35348); test: Alpha1A (h) Eurofins-Cerep binding assay; set-up: ligand concentration 0.1 nM; conditions: filed as antagonist, Compound concentration 10.0 uM
[44] = target: Cytoplasmic tyrosine-protein kinase BMX (Homo sapiens) (UniProt P51813); conditions: Compound concentration 1000.0 nM

Structure (SMILES): COc1ccc2c(c1)O[C@@H](c1ccc(OC)c(OC)c1)C[C@H]2NC(=O)C1(c2ccc3c(c2)OC(F)(F)O3)CC1 [A-1596586]
- residual activity [1]: 91%
- residual activity [2]: 78%
- residual activity [3]: 74%
- residual activity [4]: 85%
- residual activity [5]: 75%
- residual activity [6]: 90%
- residual activity [7]: 99%
- residual activity [8]: 86%
- residual activity [9]: 87%
- % Inhibition of Control Specific Binding (Mean n=2) [10]: 19.2%
- residual activity [11]: 91%
- residual activity [12]: 95%
- residual activity [13]: 100%
- residual activity [14]: 91%
- inhibition [15]: 8.84%
- residual activity [16]: 77%
- residual activity [17]: 78%
- residual activity [18]: 88%
- residual activity [19]: 100%
- residual activity [20]: 100%
- % Inhibition of Control Specific Binding (Mean n=2) [21]: -21.7%
- residual activity [22]: 100%
- % Inhibition of Control Specific Binding (Mean n=2) [23]: -5.5%
- residual activity [24]: 83%
- residual activity [25]: 100%
- residual activity [26]: 100%
- residual activity [27]: 75%
- residual activity [28]: 81%
- residual activity [29]: 100%
- residual activity [30]: 100%
- residual activity [31]: 83%
- inhibition [32]: -7.47%
- residual activity [33]: 95%
- residual activity [34]: 100%
- residual activity [35]: 100%
- residual activity [36]: 90%
- residual activity [37]: 99%
- residual activity [38]: 91%
- residual activity [39]: 91%
- residual activity [40]: 94%
- residual activity [41]: 68%
- % Inhibition of Control Specific Binding (Mean n=2) [42]: 11.5%
- % Inhibition of Control Specific Binding (Mean n=2) [43]: 5.7%
- residual activity [44]: 91%

Structure (SMILES): COc1ccc2c(c1)O[C@H](c1ccc(OC)c(OC)c1)C[C@@H]2NC(=O)C1(c2ccc3c(c2)OC(F)(F)O3)CC1 [A-1596584]
- residual activity [1]: 91%
- residual activity [2]: 100%
- residual activity [3]: 74%
- residual activity [4]: 100%
- residual activity [5]: 86%
- residual activity [6]: 99%
- residual activity [7]: 100%
- residual activity [8]: 92%
- residual activity [9]: 100%
- % Inhibition of Control Specific Binding (Mean n=2) [10]: 5%
- residual activity [11]: 100%
- residual activity [12]: 94%
- residual activity [13]: 88%
- residual activity [14]: 100%
- inhibition [15]: 7.46%
- residual activity [16]: 100%
- residual activity [17]: 88%
- residual activity [18]: 100%
- residual activity [19]: 97%
- residual activity [20]: 100%
- % Inhibition of Control Specific Binding (Mean n=2) [21]: 4.8%
- residual activity [22]: 100%
- % Inhibition of Control Specific Binding (Mean n=2) [23]: 13.7%
- residual activity [24]: 98%
- residual activity [25]: 89%
- residual activity [26]: 100%
- residual activity [27]: 69%
- residual activity [28]: 91%
- residual activity [29]: 100%
- residual activity [30]: 97%
- residual activity [31]: 100%
- inhibition [32]: -6.5%
- residual activity [33]: 100%
- residual activity [34]: 100%
- residual activity [35]: 80%
- residual activity [36]: 100%
- residual activity [37]: 100%
- residual activity [38]: 100%
- residual activity [39]: 88%
- residual activity [40]: 100%
- residual activity [41]: 61%
- % Inhibition of Control Specific Binding (Mean n=2) [42]: 11.5%
- % Inhibition of Control Specific Binding (Mean n=2) [43]: 27.3%
- residual activity [44]: 100%
